Tests used:
[1] = Selectivity index, ratio of CC50 for human HeLa cells to IC50 for Human rhinovirus 1B infected in human HeLa cells; type: toxicity, cell-based; settings: read-out: Ratio CC50/IC50
rhinovirus A1B = assay: Antiviral activity against Human rhinovirus 1B infected in human HeLa cells assessed as reduction in virus-induced cytopathic effect after 2 days by SRB staining based microscopic method; type: functional, organism-based; settings: Rhinovirus A, 48 h
[2] = Cytotoxicity against human HeLa cells assessed as growth inhibition after 2 days by SRB assay; type: cell-based
[3] = Cytotoxicity against African green monkey Vero cells assessed as growth inhibition after 2 days by SRB assay; type: cell-based; settings: chlorocebus sabaeus
[4] = Selectivity index, ratio of CC50 for African green monkey Vero cells to IC50 for Coxsackievirus B3 infected in African green monkey Vero cells; type: toxicity; settings: read-out: Ratio CC50/IC50
Coxsackievirus B3 = assay: Antiviral activity against Coxsackievirus B3 infected in African green monkey Vero cells assessed as reduction in virus-induced cytopathic effect after 2 days by SRB staining based microscopic method; type: functional, organism-based; settings: Enterovirus B, 48 h

SMILES	selectivity ratio [1]	IC50 (rhinovirus A1B)	CC50 at 48 h [2]	CC50 at 48 h [3]	selectivity ratio [4]	IC50 (Coxsackievirus B3)
COc1cc(C[C@H]2COC(=O)[C@@H]2Cc2ccc(O)c(OC)c2)ccc1O [MATAIRESINOL]	> 1.2	43.2 µM	> 50 µM	–	–	–
COc1cc([C@@H](OC)[C@@H]2CO[C@H](c3ccc(O)c(OC)c3)[C@@H]2CO)ccc1O (relative stereo)	–	–	–	> 50 µM	> 3.2	15.4 µM
COc1cc(C[C@H]2C(=O)OC[C@@H]2Cc2cc(OC)c(O)c(-c3cc(C[C@H]4C(=O)OC[C@@H]4Cc4ccc(OC)c(OC)c4)cc(OC)c3O)c2)ccc1O	> 1.1	45.7 µM	> 50 µM	–	–	–
COc1ccc(C[C@H]2COC(=O)[C@@H]2Cc2ccc(Oc3cc(C[C@H]4C(=O)OC[C@@H]4Cc4ccc(OC)c(OC)c4)cc(OC)c3O)c(OC)c2)cc1OC	> 3.8	13 µM	> 50 µM	–	–	–
COc1cc(C[C@H]2COC(=O)[C@@H]2Cc2cc(OC)c(O)c(-c3cc(C[C@H]4C(=O)OC[C@@H]4Cc4ccc(OC)c(OC)c4)cc(OC)c3O)c2)ccc1O	> 1.1	47.5 µM	> 50 µM	–	–	–
CCOC(=O)/C=C/[C@H](C[C@@H]1CCNC1=O)NC(=O)[C@@H](CC(=O)[C@@H](NC(=O)c1cc(C)on1)C(C)C)Cc1ccc(F)cc1 [RUPINTRIVIR]	–	–	> 50 µM	> 50 µM	> 7.6	6.6 µM
